Results: patent publication US20230355626A1, “INHIBITORS OF HUMAN IMMUNODEFICIENCY VIRUS REPLICATION” (VIIV HEALTHCARE UK (NO.5) LIMITED, priority 2020, published 2023)

Tests used:
recombinant NL4-3 virus = assay: HIV cell culture assay (antiviral activity, luciferase readout in infected MT-2 cells); type: cell-based; conditions: Human immunodeficiency virus 1, NL43, MT2
Method in brief: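 MT-2 cells infected for 4-5 days with 293T-derived NL4-3 reporter virus (nef partly replaced by Renilla luciferase) in serial compound dilutions. Live-cell luciferase read-out. EC50 from median effect equation fit.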

[1] = Compound cytotoxicity, XTT-based colorimetric assay; type: cell-based; conditions: human; uninfected MT2 cells, day 4, XTT assay
Method in brief: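 CC50 derived from XTT colorimetric signal measured on day 4 in MT2 cells that were not infected. All other steps followed the antiviral assay protocol.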

| SMILES | EC50 (recombinant NL4-3 virus) | CC50 at 4 day [1] |
| --- | --- | --- |
| Cn1nc(NS(C)(=O)=O)c2c(Cl)ccc(-n3c([C@H](Cc4cc(F)cc(F)c4)NC(=O)Cn4nc(C(F)F)c5c4C(F)(F)[C@@H]4C[C@H]54)nc4nc(OCC(F)(F)C(F)(F)C(F)(F)C(F)(F)F)ccc4c3=O)c21 (atropisomer, axis not shown; (P)) [Example 40, N-((S)-1-((3P,3P)-3-(4-chloro-1-methyl-3-(methylsulfonamido)-1H-indazol-7-yl)-7-((2,2,3,3,4,4,5,5,5-nonafluoropentyl)oxy)-4-oxo-3,4-dihydropyrido[2,3-d]pyrimidin-2-yl)-2-(3,5-difluorophenyl)ethyl)-2-((3bS,4aR)-3-(difluoromethyl)-5,5-difluoro-3b,4,4a,5-tetrahydro-1H-cyclopropa[3,4]cyclopenta[1,2-c]pyrazol-1-yl)acetamide] | 0.31 nM | > 100 nM |
| Cn1nc(NS(C)(=O)=O)c2c(Cl)ccc(-n3c([C@H](Cc4cc(F)cc(F)c4)NC(=O)Cn4nc(C(F)F)c5c4C(F)(F)[C@@H]4C[C@H]54)nc4nc(OCc5nc(C(F)(F)F)cs5)ccc4c3=O)c21 (atropisomer, axis not shown; (P)) [Example 23, N-((S)-1-((3P)-3-(4-chloro-1-methyl-3-(methylsulfonamido)-1H-indazol-7-yl)-4-oxo-7-((4-(trifluoromethyl)thiazol-2-yl)methoxy)-3,4-dihydropyrido[2,3-d]pyrimidin-2-yl)-2-(3,5-difluorophenyl)ethyl)-2-((3bS,4aR)-3-(difluoromethyl)-5,5-difluoro-3b,4,4a,5-tetrahydro-1H-cyclopropa[3,4]cyclopenta[1,2-c]pyrazol-1-yl)acetamide] | 0.1 nM | > 100 nM |
| COC(C)(C)CCOc1ccc2c(=O)n(-c3ccc(Cl)c4c(NS(C)(=O)=O)nn(C)c34)c([C@H](Cc3cc(F)cc(F)c3)NC(=O)Cn3nc(C(F)F)c4c3C(F)(F)[C@@H]3C[C@H]43)nc2n1 (atropisomer, axis not shown; (P)) [Example 15, N-((S)-1-((3P)-3-(4-chloro-1-methyl-3-(methylsulfonamido)-1H-indazol-7-yl)-7-(3-methoxy-3-methylbutoxy)-4-oxo-3,4-dihydropyrido[2,3-d]pyrimidin-2-yl)-2-(3,5-difluorophenyl)ethyl)-2-((3bS,4aR)-3-(difluoromethyl)-5,5-difluoro-3b,4,4a,5-tetrahydro-1H-cyclopropa[3,4]cyclopenta[1,2-c]pyrazol-1-yl)acetamide] | 0.019 nM | > 500 nM |
| Cn1nc(NS(C)(=O)=O)c2c(Cl)ccc(-n3c([C@H](Cc4cc(F)cc(F)c4)NC(=O)Cn4nc(C(F)F)c5c4C(F)(F)[C@@H]4C[C@H]54)nc4nc(OCc5ccncc5)ccc4c3=O)c21 (atropisomer, axis not shown; (P)) [Example 2, N-((S)-1-((3P,3P)-3-(4-chloro-1-methyl-3-(methylsulfonamido)-1H-indazol-7-yl)-4-oxo-7-(pyridin-4-ylmethoxy)-3,4-dihydropyrido[2,3-d]pyrimidin-2-yl)-2-(3,5-difluorophenyl)ethyl)-2-((3bS,4aR)-3-(difluoromethyl)-5,5-difluoro-3b,4,4a,5-tetrahydro-1H-cyclopropa[3,4]cyclopenta[1,2-c]pyrazol-1-yl)acetamide] | 0.06 nM | > 100 nM |
| Cn1cc(CCOc2ccc3c(=O)n(-c4ccc(Cl)c5c(NS(C)(=O)=O)nn(C)c45)c([C@H](Cc4cc(F)cc(F)c4)NC(=O)Cn4nc(C(F)F)c5c4C(F)(F)[C@@H]4C[C@H]54)nc3n2)cn1 (atropisomer, axis not shown; (P)) [Example 12, N-((S)-1-((3P,3P)-3-(4-chloro-1-methyl-3-(methylsulfonamido)-1H-indazol-7-yl)-7-(2-(1-methyl-1H-pyrazol-4-yl)ethoxy)-4-oxo-3,4-dihydropyrido[2,3-d]pyrimidin-2-yl)-2-(3,5-difluorophenyl)ethyl)-2-((3bS,4aR)-3-(difluoromethyl)-5,5-difluoro-3b,4,4a,5-tetrahydro-1H-cyclopropa[3,4]cyclopenta[1,2-c]pyrazol-1-yl)acetamide] | 0.14 nM | > 100 nM |
| Cn1nc(NS(C)(=O)=O)c2c(Cl)ccc(-n3c([C@H](Cc4cc(F)cc(F)c4)NC(=O)Cn4nc(C(F)F)c5c4C(F)(F)[C@@H]4C[C@H]54)nc4nc(OCCC(C)(C)c5ccccc5)ccc4c3=O)c21 (atropisomer, axis not shown; (P)) [Example 5, N-((S)-1-((3P)-3-(4-chloro-1-methyl-3-(methylsulfonamido)-1H-indazol-7-yl)-7-(3-methyl-3-phenylbutoxy)-4-oxo-3,4-dihydropyrido[2,3-d]pyrimidin-2-yl)-2-(3,5-difluorophenyl)ethyl)-2-((3bS,4aR)-3-(difluoromethyl)-5,5-difluoro-3b,4,4a,5-tetrahydro-1H-cyclopropa[3,4]cyclopenta[1,2-c]pyrazol-1-yl)acetamide] | 0.43 nM | > 100 nM |
| Cn1nc(NS(C)(=O)=O)c2c(Cl)ccc(-n3c([C@H](Cc4cc(F)cc(F)c4)NC(=O)Cn4nc(C(F)F)c5c4C(F)(F)[C@@H]4C[C@H]54)nc4nc(OCC5(C(F)(F)F)CC5)ccc4c3=O)c21 (atropisomer, axis not shown; (P)) [Example 21, N-((S)-1-((3P)-3-(4-chloro-1-methyl-3-(methylsulfonamido)-1H-indazol-7-yl)-4-oxo-7-((1-(trifluoromethyl)cyclopropyl)methoxy)-3,4-dihydropyrido[2,3-d]pyrimidin-2-yl)-2-(3,5-difluorophenyl)ethyl)-2-((3bS,4aR)-3-(difluoromethyl)-5,5-difluoro-3b,4,4a,5-tetrahydro-1H-cyclopropa[3,4]cyclopenta[1,2-c]pyrazol-1-yl)acetamide] | 0.046 nM | > 500 nM |
| COCCCCCOc1ccc2c(=O)n(-c3ccc(Cl)c4c(NS(C)(=O)=O)nn(C)c34)c([C@H](Cc3cc(F)cc(F)c3)NC(=O)Cn3nc(C(F)F)c4c3C(F)(F)[C@@H]3C[C@H]43)nc2n1 (atropisomer, axis not shown; (P)) [Example 17, N-((S)-1-((3P)-3-(4-chloro-1-methyl-3-(methylsulfonamido)-1H-indazol-7-yl)-7-((5-methoxypentyl)oxy)-4-oxo-3,4-dihydropyrido[2,3-d]pyrimidin-2-yl)-2-(3,5-difluorophenyl)ethyl)-2-((3bS,4aR)-3-(difluoromethyl)-5,5-difluoro-3b,4,4a,5-tetrahydro-1H-cyclopropa[3,4]cyclopenta[1,2-c]pyrazol-1-yl)acetamide] | 0.046 nM | > 100 nM |
| Cn1nc(NS(C)(=O)=O)c2c(Cl)ccc(-n3c([C@H](Cc4cc(F)cc(F)c4)NC(=O)Cn4nc(C(F)F)c5c4C(F)(F)[C@@H]4C[C@H]54)nc4nc(OCCC5CC5(F)F)ccc4c3=O)c21 (stereo partly drawn) [Example 38, N-((1S)-1-((3P,3P)-3-(4-chloro-1-methyl-3-(methylsulfonamido)-1H-indazol-7-yl)-7-(2-(2,2-difluorocyclopropyl)ethoxy)-4-oxo-3,4-dihydropyrido[2,3-d]pyrimidin-2-yl)-2-(3,5-difluorophenyl)ethyl)-2-((3bS,4aR)-3-(difluoromethyl)-5,5-difluoro-3b,4,4a,5-tetrahydro-1H-cyclopropa[3,4]cyclopenta[1,2-c]pyrazol-1-yl)acetamide] | 0.037 nM | > 100 nM |
| CN(CCOc1ccc2c(=O)n(-c3ccc(Cl)c4c(NS(C)(=O)=O)nn(C)c34)c([C@H](Cc3cc(F)cc(F)c3)NC(=O)Cn3nc(C(F)F)c4c3C(F)(F)[C@@H]3C[C@H]43)nc2n1)S(C)(=O)=O (atropisomer, axis not shown; (P)) [Example 10, N-((S)-1-((3P)-3-(4-chloro-1-methyl-3-(methylsulfonamido)-1H-indazol-7-yl)-7-(2-(N-methylmethylsulfonamido)ethoxy)-4-oxo-3,4-dihydropyrido[2,3-d]pyrimidin-2-yl)-2-(3,5-difluorophenyl)ethyl)-2-((3bS,4aR)-3-(difluoromethyl)-5,5-difluoro-3b,4,4a,5-tetrahydro-1H-cyclopropa[3,4]cyclopenta[1,2-c]pyrazol-1-yl)acetamide] | 0.041 nM | > 500 nM |
| Cn1nc(NS(C)(=O)=O)c2c(Cl)ccc(-n3c([C@H](Cc4cc(F)cc(F)c4)NC(=O)Cn4nc(C(F)F)c5c4C(F)(F)[C@@H]4C[C@H]54)nc4nc(OCCOC5CC5(F)F)ccc4c3=O)c21 (stereo partly drawn) [Example 34, N-((1S)-1-((3P,3P)-3-(4-chloro-1-methyl-3-(methylsulfonamido)-1H-indazol-7-yl)-7-(2-(2,2-difluorocyclopropoxy)ethoxy)-4-oxo-3,4-dihydropyrido[2,3-d]pyrimidin-2-yl)-2-(3,5-difluorophenyl)ethyl)-2-((3bS,4aR)-3-(difluoromethyl)-5,5-difluoro-3b,4,4a,5-tetrahydro-1H-cyclopropa[3,4]cyclopenta[1,2-c]pyrazol-1-yl)acetamide] | 0.035 nM | > 100 nM |
